Assay results: patent US11608323B2 (SYNGENTA LIMITED, priority 2013, dated 2023)

Legend:
Type in all cases: in vivo
AMARE [1] = assay: Post-emergence herbicidal activity, glasshouse pot test; settings: Amaranthus retroflexus; application post-emergence; rate 1000 g/Ha; evaluated after 13 days
How it was run: (§1)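 Damage was rated 0-5 (5 = total) 13 days after a post-emergence spray of acetone/water (50:50) plus 0.5% Tween 20 formulation. Plants were sprayed at 8 days' growth and kept at 24/16° C, 14 h light, 65% humidity, watered twice daily.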

ABUTH [2] = assay: as above; settings: Abutilon theophrasti; application post-emergence; rate 1000 g/Ha; evaluated after 13 days
How it was run: as §1

ZEAMX [3] = assay: as above; settings: Zea mays; application post-emergence; rate 1000 g/Ha; evaluated after 13 days
How it was run: as §1

ECHCG [4] = assay: as above; settings: Echinochloa crus-galli; application post-emergence; rate 1000 g/Ha; evaluated after 13 days
How it was run: as §1

ALOMY [5] = assay: as above; settings: Alopecurus myosuroides; application post-emergence; rate 1000 g/Ha; evaluated after 13 days
How it was run: as §1

SETFA [6] = assay: as above; settings: Setaria faberi; application post-emergence; rate 1000 g/Ha; evaluated after 13 days
How it was run: as §1

AMARE [7] = assay: Pre-emergence herbicidal activity, glasshouse pot test; settings: rate 1000 g/Ha, evaluated after 13 days, scale 0-5
How it was run: (§2)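 Seeds sown in standard soil in pots, held one day in glasshouse (24/16 °C day/night, 14 h light, 65% humidity), then sprayed with aqueous solution of compound formulated in acetone/water 50:50 with 0.5% Tween 20. Grown on under same conditions, watered twice daily; damage scored after 13 days (0 = none, 5 = total).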

ABUTH [8] = assay: as above; settings: rate 1000 g/Ha, evaluated after 13 days, scale 0-5
How it was run: as §2

ZEAMX [9] = assay: as above; settings: rate 1000 g/Ha, evaluated after 13 days, scale 0-5
How it was run: as §2

ECHCG [10] = assay: as above; settings: rate 1000 g/Ha, evaluated after 13 days, scale 0-5
How it was run: as §2

ALOMY [11] = assay: as above; settings: rate 1000 g/Ha, evaluated after 13 days, scale 0-5
How it was run: as §2

SETFA [12] = assay: as above; settings: rate 1000 g/Ha, evaluated after 13 days, scale 0-5
How it was run: as §2

| SMILES | Post-emergence herbicidal activity AMARE (damage score 0-5) (AMARE [1]) | Post-emergence herbicidal activity ABUTH (damage score 0-5) (ABUTH [2]) | Post-emergence herbicidal activity ZEAMX (damage score 0-5) (ZEAMX [3]) | Post-emergence herbicidal activity ECHCG (damage score 0-5) (ECHCG [4]) | Post-emergence herbicidal activity ALOMY (damage score 0-5) (ALOMY [5]) | Post-emergence herbicidal activity SETFA (damage score 0-5) (SETFA [6]) | AMARE damage score, application pre-emergence (AMARE [7]) | ABUTH damage score, application pre-emergence (ABUTH [8]) | ZEAMX damage score, application pre-emergence (ZEAMX [9]) | ECHCG damage score, application pre-emergence (ECHCG [10]) | ALOMY damage score, application pre-emergence (ALOMY [11]) | SETFA damage score, application pre-emergence (SETFA [12]) |
| --- | --- | --- | --- | --- | --- | --- | --- | --- | --- | --- | --- | --- |
| CC1C(O)N(c2cc(C(F)(F)F)ccn2)C(=O)N1C (stereo not drawn) [Compound A19, 4-hydroxy-1,5-dimethyl-3-[4-(trifluoromethyl)-2-pyridyl]imidazolidin-2-one] | 5 | 5 | 4 | 5 | 5 | 5 | 5 | 5 | 3 | 5 | 4 | 5 |
| CON1C(=O)N(c2cc(C(F)(F)F)c(Br)cn2)C(O)C1C (single isomer, unassigned) [Compound A55] | 5 | 5 | 4 | 5 | 5 | 5 | 5 | 5 | 2 | 4 | 4 | 4 |
| CCOC1C(O)N(c2cc(C(F)(F)F)c(Cl)cn2)C(=O)N1C (stereo not drawn) [Compound A53] | 5 | 5 | 3 | 5 | 5 | 5 | 5 | 5 | 2 | 4 | 4 | 4 |
| CCOC1C(OC(=O)[C@@H](OC(C)=O)c2ccccc2)N(c2cc(C(F)(F)F)ccn2)C(=O)N1C (stereo partly drawn) [Compound A97] | 5 | 5 | 3 | 5 | 5 | 5 | 5 | 5 | 3 | 4 | 4 | 4 |
| CCOC1C(O)N(c2cc(C(F)(F)F)c(C)cn2)C(=O)N1C (stereo not drawn) [Compound A52] | 5 | 5 | 5 | 5 | 5 | 5 | 5 | 5 | 2 | 5 | 4 | 4 |
| CCOC1C(OC(=O)[C@@H]2CCCO2)N(c2cc(C(F)(F)F)ccn2)C(=O)N1C (stereo partly drawn) [Compound A100] | 5 | 5 | 4 | 5 | 5 | 5 | 5 | 5 | 1 | 3 | 4 | 3 |
| CON1C(=O)N(c2cc(C(F)(F)F)ccn2)C(O)[C@H]1C (mixture of isomers) [Compound A4, (4R,5R)-4-hydroxy-1-methoxy-5-methyl-3-[4-(trifluoromethyl)-2-pyridyl]imidazolidin-2-one and (4S,5R)-4-hydroxy-1-methoxy-5-methyl-3-[4-(trifluoromethyl)-2-pyridyl]imidazolidin-2-one] | 5 | 5 | 5 | 5 | 5 | 5 | 5 | 5 | 3 | 5 | 4 | 5 |
| C[C@H]1C(O)N(c2cc(C(F)(F)F)ccn2)C(=O)N1C (mixture of isomers) [Compound A37, (4R,5S)-4-hydroxy-1,5-dimethyl-3-[4-(trifluoromethyl)-2-pyridyl]imidazolidin-2-one and (4S,5S)-4-hydroxy-1,5-dimethyl-3-[4-(trifluoromethyl)-2-pyridyl]imidazolidin-2-one] | 5 | 5 | 4 | 5 | 5 | 5 | 5 | 5 | 3 | 5 | 4 | 4 |
| CN1C(=O)N(c2cc(C(F)(F)F)ccn2)C(O)C1O (stereo not drawn) [Compound A7, 4,5-dihydroxy-1-methyl-3-[4-(trifluoromethyl)-2-pyridyl]imidazolidin-2-one] | 5 | 5 | 4 | 5 | 4 | 5 | 5 | 5 | 1 | 3 | 4 | 4 |
| O=C1N(c2cc(C(F)(F)F)ccn2)C(O)[C@@H]2CCCN12 (stereo partly drawn) [Compound A46] | 5 | 5 | 3 | 5 | 5 | 5 | 5 | 5 | 3 | 4 | 4 | 2 |
| CCOC1C(O)N(c2cc(C(F)(F)F)ccn2)C(=O)N1CC (stereo not drawn) [Compound A29] | 5 | 5 | 2 | 4 | 4 | 3 | 5 | 5 | 1 | 1 | 1 | 2 |
| CC1C(O)N(c2cc(C(F)(F)F)c(Cl)cn2)C(=O)N1C (stereo not drawn) [Compound A49] | 5 | 5 | 4 | 5 | 5 | 5 | 5 | 5 | 3 | 4 | 4 | 4 |
